# From ChEMBL document CHEMBL5150076, “Discovery of Novel Orally Bioavailable Triazoles with Potent and Broad-Spectrum Antifungal Activity In Vitro and In Vivo” (J Med Chem, 2022)
# Experiments:
# [1] = target: T1, Lanosterol 14-alpha demethylase (Candida albicans (strain SC5314 / ATCC MYA-2876) (Yeast), UniProt P10613); assay: Inhibition of CYP51 in Candida albicans SC5314 assessed as sterol level at 0.0625 ug/ml measured after 12 hrs by GC-MS analysis (reference value: 25.23%); set-up: scale not given: the % may be the effect or the level left; conditions: dose 0.0625 µg/ml
# T1 sequence (P10613 whole entry): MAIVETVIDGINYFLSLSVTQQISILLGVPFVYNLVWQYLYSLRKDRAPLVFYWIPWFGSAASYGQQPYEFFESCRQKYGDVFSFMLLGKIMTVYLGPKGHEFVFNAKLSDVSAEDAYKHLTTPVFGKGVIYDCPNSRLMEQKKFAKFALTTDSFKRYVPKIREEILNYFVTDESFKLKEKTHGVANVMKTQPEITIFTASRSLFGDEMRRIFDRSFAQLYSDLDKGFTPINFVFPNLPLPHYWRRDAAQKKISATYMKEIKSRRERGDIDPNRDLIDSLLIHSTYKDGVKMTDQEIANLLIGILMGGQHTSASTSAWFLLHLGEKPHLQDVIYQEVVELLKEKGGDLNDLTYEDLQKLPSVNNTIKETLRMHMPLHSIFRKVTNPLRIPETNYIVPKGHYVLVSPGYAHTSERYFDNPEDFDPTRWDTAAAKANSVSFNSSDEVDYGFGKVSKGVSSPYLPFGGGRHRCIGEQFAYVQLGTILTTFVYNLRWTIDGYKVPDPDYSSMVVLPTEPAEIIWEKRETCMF
# [2] = Half life in Sprague-Dawley rat at 5 mg/kg, po by LC-MS analysis; format: ADME, organism-based; conditions: in vivo
# Aspergillus fumigatus [3] = assay: Antifungal activity against Aspergillus fumigatus 7544 infected in ICR mouse assessed as survival rate at 20 mg/kg, po qd infected with fungus for 2 hrs prior to compound addition for 7 days and measured for 20 days; format: functional; conditions: time 20 day
# Candida albicans [4] = assay: Antifungal activity against Candida albicans 25#; format: functional
# [5] = Cmax in Sprague-Dawley rat at 5 mg/kg, po by LC-MS analysis; format: ADME, organism-based; set-up: dose 5 mg/kg, route po; conditions: in vivo
# Candida albicans [6] = assay: Antifungal activity against Candida albicans SC5314 incubated for 24 hrs by microbroth dilution method; format: functional
# Candida albicans [7] = assay: Antifungal activity against Candida albicans 162; format: functional
# [8] = target: T1, Lanosterol 14-alpha demethylase; assay: Inhibition of CYP51 in Candida albicans SC5314 assessed as ergosterol level at 0.0625 ug/ml measured after 12 hrs by GC-MS analysis (reference value: 72.58%); set-up: scale not given: the % may be the effect or the level left; conditions: dose 0.0625 µg/ml
# [9] = Oral bioavailability in Sprague-Dawley rat at 5 mg/kg by LC-MS analysis; format: ADME, organism-based; conditions: in vivo
# Candida albicans [10] = assay: Antifungal activity against Candida albicans 14#; format: functional
# [11] = Induction of hemolysis in rabbit RBC at 64 ug/ml incubated for 1 hr; format: toxicity, cell-based, Oryctolagus cuniculus, Erythrocyte; conditions: red blood cells, at 64 µg/mL, read-out: Activity
# Nakaseomyces glabratus [12] = assay: Antifungal activity against Candida glabrata ATCC2001; format: functional
# [13] = target: T1, Lanosterol 14-alpha demethylase; assay: Inhibition of CYP51 in Candida albicans SC5314 assessed as eburicol level at 0.0625 ug/ml measured after 12 hrs by GC-MS analysis (reference value: 0.00%); set-up: scale not given: the % may be the effect or the level left; conditions: dose 0.0625 µg/ml
# in vitro = conditions: human, Caco-2 cells; at 64 µg/mL
# [14] = AUC(0 to infinity) in Sprague-Dawley rat at 5 mg/kg, po by LC-MS analysis; format: ADME, organism-based; set-up: time infinity, dose 5 mg/kg, route po; conditions: in vivo
# [Candida] auris [15] = Antifungal activity against Candida auris 791; format: functional; conditions: Candidozyma auris
# Pichia kudriavzevii [16] = assay: Antifungal activity against Candida krusei 463; format: functional
# [Candida] auris [17] = Antifungal activity against Candida auris D12; format: functional; conditions: Candidozyma auris
# Candida tropicalis [18] = assay: Antifungal activity against Candida tropicalis ATCC750; format: functional
# Candida albicans [19] = assay: Antifungal activity against Candida albicans Y0109; format: functional
# Candida tropicalis [20] = assay: Antifungal activity against Candida tropicalis 112936; format: functional
# Candida albicans [21] = assay: Antifungal activity against Candida albicans 20#; format: functional
# Aspergillus fumigatus [22] = assay: Antifungal activity against Aspergillus fumigatus 7544 infected in ICR mouse assessed as survival rate at 60 mg/kg, po qd infected with fungus for 2 hrs prior to compound addition for 7 days and measured for 20 days; format: functional; conditions: time 20 day
# Candida parapsilosis [23] = assay: Antifungal activity against Candida parapsilosis 700; format: functional; conditions: Lodderomyces parapsilosis
# Candida albicans [24] = assay: Antifungal activity against Candida albicans 28#; format: functional
# [25] = Cytotoxicity against HUVEC assessed as cell viability at 64 ug/ml incubated for 24 hrs by CCK-8 assay; format: toxicity, cell-based; conditions: human, HUVEC cells, at 64 µg/mL, read-out: Activity
# Nannizzia gypsea = assay: Antifungal activity against Microsporum gypseum; format: functional
# [Candida] auris [26] = Antifungal activity against Candida auris BS12372; format: functional; conditions: Candidozyma auris
# Candida albicans [27] = assay: Antifungal activity against Candida albicans 12#; format: functional
# Pichia kudriavzevii [28] = assay: Antifungal activity against Candida krusei 467; format: functional
# [29] = Half life in Sprague-Dawley rat at 2 mg/kg, iv by LC-MS analysis; format: ADME, organism-based; conditions: in vivo
# Candida parapsilosis [30] = assay: Antifungal activity against Candida parapsilosis 660; format: functional; conditions: Lodderomyces parapsilosis
# Aspergillus fumigatus [31] = assay: Antifungal activity against Aspergillus fumigatus 7544 incubated for 48 hrs by microbroth dilution method; format: functional
# Cryptococcus neoformans [32] = assay: Antifungal activity against Cryptococcus neoformans 32605; format: functional
# Candida parapsilosis [33] = assay: Antifungal activity against Candida parapsilosis 22019; format: functional; conditions: Lodderomyces parapsilosis
# Pichia kudriavzevii [34] = assay: Antifungal activity against Candida krusei 397; format: functional
# [35] = Tmax in Sprague-Dawley rat at 5 mg/kg, po by LC-MS analysis; format: ADME, organism-based; conditions: in vivo
# Pichia kudriavzevii [36] = assay: Antifungal activity against Candida krusei 629; format: functional
# Candida albicans [37] = assay: Antifungal activity against Candida albicans 305; format: functional
# Candida parapsilosis [38] = assay: Antifungal activity against Candida parapsilosis 90018; format: functional; conditions: Lodderomyces parapsilosis
# Nakaseomyces glabratus [39] = assay: Antifungal activity against Candida glabrata 537; format: functional
# Trichophyton rubrum = assay: Antifungal activity against Trichophyton rubrum cmccftla; format: functional
# [40] = AUC(0 to infinity) in Sprague-Dawley rat at 2 mg/kg, iv by LC-MS analysis; format: ADME, organism-based; set-up: time infinity, dose 2 mg/kg, route iv; conditions: in vivo
# [41] = target: T1, Lanosterol 14-alpha demethylase; assay: Inhibition of CYP51 in Candida albicans SC5314 assessed as lanosterol level at 0.0625 ug/ml measured after 12 hrs by GC-MS analysis (reference value: 2.18%); set-up: scale not given: the % may be the effect or the level left; conditions: dose 0.0625 µg/ml
# Cryptococcus neoformans [42] = assay: Antifungal activity against Cryptococcus neoformans H99 incubated for 72 hrs by microbroth dilution method; format: functional
structure (smiles),measurement,setting,value
C[C@@H](c1ncncc1F)[C@](O)(Cn1cncn1)c1ccc(F)cc1F [VORICONAZOLE],Activity,[1],5.84%
same,half-life,[2],40.2 min
same,Activity,Aspergillus fumigatus [3],60%
same,MIC,Candida albicans [4],> 64 µg/mL
same,Cmax,[5],877 ng/mL
same,MIC,Candida albicans [6],0.0313 µg/mL
same,MIC,Candida albicans [7],> 64 µg/mL
same,Activity,[8],1.63%
same,bioavailability,[9],26%
same,MIC,Candida albicans [10],> 64 µg/mL
same,"hemolysis at 1 h, 64 ug/ml",[11],1.07%
same,MIC,Nakaseomyces glabratus [12],0.125 µg/mL
same,Activity,[13],87.15%
same,"viability at 24 h, 64 ug/ml",in vitro,103%
same,AUC(0-inf),[14],2530 ng·h/mL
same,MIC,[Candida] auris [15],2 µg/mL
same,MIC,Pichia kudriavzevii [16],0.0625 µg/mL
same,MIC,[Candida] auris [17],1 µg/mL
same,MIC,Candida tropicalis [18],8 µg/mL
same,MIC,Candida albicans [19],0.0156 µg/mL
same,MIC,Candida tropicalis [20],> 16 µg/mL
same,MIC,Candida albicans [21],≤ 0.0313 µg/mL
same,Activity,Aspergillus fumigatus [22],100%
same,MIC,Candida parapsilosis [23],0.0313 µg/mL
same,MIC,Candida albicans [24],≤ 0.0313 µg/mL
same,"viability at 24 h, 64 ug/ml",[25],93.4%
same,MIC,Nannizzia gypsea,0.25 µg/mL
same,MIC,[Candida] auris [26],2 µg/mL
same,MIC,Candida albicans [27],> 64 µg/mL
same,MIC,Pichia kudriavzevii [28],0.125 µg/mL
same,half-life,[29],234 min
same,MIC,Candida parapsilosis [30],≤ 0.0313 µg/mL
same,MIC,Aspergillus fumigatus [31],0.25 µg/mL
same,MIC,Cryptococcus neoformans [32],0.0156 µg/mL
same,MIC,Candida parapsilosis [33],0.0313 µg/mL
same,MIC,Pichia kudriavzevii [34],0.125 µg/mL
same,Tmax,[35],53.4 min
same,MIC,Pichia kudriavzevii [36],0.0625 µg/mL
same,MIC,Candida albicans [37],> 16 µg/mL
same,MIC,Candida parapsilosis [38],≤ 0.0313 µg/mL
same,MIC,Nakaseomyces glabratus [39],0.125 µg/mL
same,MIC,Trichophyton rubrum,0.0625 µg/mL
same,AUC(0-inf),[40],7200 ng·h/mL
same,Activity,[41],5.38%
same,MIC,Cryptococcus neoformans [42],0.0313 µg/mL
